{"source": "patent US7230085B2", "about": "“Anti-DOTA antibody” (Immunomedics, Inc., priority 2001, dated 2007)", "key": {"[1]": {"test_system": "human colonic tumor cell line, termed GW-39", "experiment": "Biodistribution in nude mice bearing GW-39 tumors", "design": "species or system NcR athymic nude mice", "settings": "mouse, in vivo", "procedure": "NcR athymic nude mice are implanted with cells of the human colonic tumor cell line, termed GW-39. When tumors have reached an appropriate size (>100 mm^3) agents are injected. The I-125-radioiodinated msAb is given first, and at different later times the In-111-IMP-236 is administered. The latter radiolabeled peptide is also given alone to a control group of animals. Doses given to each animal are 1.5×10^−10 moles of I-125-hMN-14×mLG1 (8 uCi of I-125 per animal), and 1.5×10^−11 moles of In-111-IMP-236. At specified times post-injection of the labeled IMP-236 animals are sacrificed and major internal tissues are collected and quantified for both I-125 and In-111 radioactivity."}, "LG1 IgG antibody": {"test_system": "LG1 IgG antibody", "experiment": "Binding of radiolabeled IMP 236 by LG1 on size-exclusion HPLC", "design": "species or system mouse", "settings": "mixed with excess LG1; SE-HPLC shift", "procedure": "Typical procedures for the production of radiolabeled DOTA-peptides incorporating, for example, Y-90 and Lu-177 are as follows. Of particular importance is the maximum specific activity achievable, which depends on the quality of the isotope. The radionuclide, obtained in an acidic solution, is treated with an excess of an acetate buffer, to a final pH of 4-6, and added to the DOTA-peptide conjugate, also in acetate buffer. All manipulations are carried out using acid-washed and metal-free components. The labeling mixture is heated at 45° C. for one hour and then allowed to cool to room temperature. Radiolabeled peptides are analyzed by RP-HPLC to determine incorporation, and are tested for binding to LG1, by mixing with a small excess of the LG1 mAb, and testing by analytical size-exclusion HPLC.\nYttrium-90 (^˜400 uCi per kit) is diluted to 1 mL in deionized water and added in one portion to the lyophilized IMP 236 kits of example 12. The kits are heated in a boiling water-bath for 15 min, and the vials then cooled to room temperature. The Y-90 radiolabeled peptides are analyzed by reverse-phase HPLC. […]\nIndium-111 [In-111] radionuclide (^˜300 uCi added per kit) is diluted to 0.5 mL in deionized water and added to the lyophilized kits. […] The labeled peptide vials are cooled to room temperature and evaluated by reverse-phase HPLC. […]"}, "hLL2-DOTA": {"test_system": "hLL2-DOTA", "experiment": "Qualitative binding on size-exclusion HPLC", "settings": "SE-HPLC", "description": "(§1) The msAb, LG1×hMN-14 (Fab′×Fab) is shown by the same analysis to bind to hLL2-DOTA-yttrium."}, "hLL2-DOTA-yttrium": {"test_system": "hLL2-DOTA-yttrium", "experiment": "Qualitative binding on size-exclusion HPLC", "settings": "SE-HPLC", "description": "as §1"}, "hMN-14-DOTA-yttrium-90": {"test_system": "hMN-14-DOTA-yttrium-90", "experiment": "Qualitative binding on size-exclusion HPLC", "settings": "SE-HPLC"}}, "note": "Where a SMILES comes first, the peptide text is derived from it. The star is where a group is joined. DOTA = O=C(O)CN1CCN(CC(=O)O)CCN(CC(=O)*)CCN(CC(=O)O)CC1"}
{"molecule": "CC(=O)N[C@@H](Cc1ccccc1)C(=O)N[C@@H](CCCCNC(=O)CN1CCN(CC(=O)O)CCN(CC(=O)O)CCN(CC(=O)O)CC1)C(=O)N[C@@H](Cc1ccc(O)cc1)C(=O)N[C@@H](CCCCNC(=O)CN1CCN(CC(=O)O)CCN(CC(=O)O)CCN(CC(=O)O)CC1)C(N)=O", "note": "[In-111-IMP-236, metal not drawn] (Ac-FK(DOTA)YK(DOTA)-NH2)", "values": [{"measurement": "Blood, 30 minutes", "setting": "[1]", "result": "1.0 ± 0.3 percent injected dose per gram of tissue"}, {"measurement": "Blood, 3 h", "setting": "[1]", "result": "0.0 ± 0.0 percent injected dose per gram of tissue"}, {"measurement": "Blood, 24 h", "setting": "[1]", "result": "0.0 ± 0.0 percent injected dose per gram of tissue"}, {"measurement": "Blood, In-111, 3 h", "setting": "[1]", "result": "0.4 ± 0.0 percent injected dose per gram of tissue"}, {"measurement": "Blood, In-111, 24 h", "setting": "[1]", "result": "0.0 ± 0.0 percent injected dose per gram of tissue"}, {"measurement": "Kidney, 30 minutes", "setting": "[1]", "result": "4.2 ± 0.7 percent injected dose per gram of tissue"}, {"measurement": "Kidney, 3 h", "setting": "[1]", "result": "2.2 ± 0.2 percent injected dose per gram of tissue"}, {"measurement": "Kidney, 24 h", "setting": "[1]", "result": "0.0 ± 0.0 percent injected dose per gram of tissue"}, {"measurement": "Kidney, In-111, 3 h", "setting": "[1]", "result": "2.5 ± 0.6 percent injected dose per gram of tissue"}, {"measurement": "Kidney, In-111, 24 h", "setting": "[1]", "result": "1.0 ± 0.2 percent injected dose per gram of tissue"}, {"measurement": "Liver, 30 minutes", "setting": "[1]", "result": "0.3 ± 0.1 percent injected dose per gram of tissue"}, {"measurement": "Liver, 3 h", "setting": "[1]", "result": "0.2 ± 0.1 percent injected dose per gram of tissue"}, {"measurement": "Liver, 24 h", "setting": "[1]", "result": "0.0 ± 0.0 percent injected dose per gram of tissue"}, {"measurement": "Liver, In-111, 3 h", "setting": "[1]", "result": "0.2 ± 0.0 percent injected dose per gram of tissue"}, {"measurement": "Liver, In-111, 24 h", "setting": "[1]", "result": "0.1 ± 0.0 percent injected dose per gram of tissue"}, {"measurement": "Lungs, 30 minutes", "setting": "[1]", "result": "0.7 ± 0.2 percent injected dose per gram of tissue"}, {"measurement": "Lungs, 3 h", "setting": "[1]", "result": "0.1 ± 0.0 percent injected dose per gram of tissue"}, {"measurement": "Lungs, 24 h", "setting": "[1]", "result": "0.0 ± 0.0 percent injected dose per gram of tissue"}, {"measurement": "Lungs, In-111, 3 h", "setting": "[1]", "result": "0.2 ± 0.0 percent injected dose per gram of tissue"}, {"measurement": "Lungs, In-111, 24 h", "setting": "[1]", "result": "0.0 ± 0.0 percent injected dose per gram of tissue"}, {"measurement": "Spleen, 30 minutes", "setting": "[1]", "result": "0.3 ± 0.1 percent injected dose per gram of tissue"}, {"measurement": "Spleen, 3 h", "setting": "[1]", "result": "0.1 ± 0.0 percent injected dose per gram of tissue"}, {"measurement": "Spleen, 24 h", "setting": "[1]", "result": "0.0 ± 0.0 percent injected dose per gram of tissue"}, {"measurement": "Spleen, In-111, 3 h", "setting": "[1]", "result": "0.2 ± 0.0 percent injected dose per gram of tissue"}, {"measurement": "Spleen, In-111, 24 h", "setting": "[1]", "result": "0.1 ± 0.0 percent injected dose per gram of tissue"}, {"measurement": "Stomach, 30 minutes", "setting": "[1]", "result": "0.2 ± 0.1 percent injected dose per gram of tissue"}, {"measurement": "Stomach, 3 h", "setting": "[1]", "result": "0.0 ± 0.0 percent injected dose per gram of tissue"}, {"measurement": "Stomach, 24 h", "setting": "[1]", "result": "0.0 ± 0.0 percent injected dose per gram of tissue"}, {"measurement": "Stomach, In-111, 3 h", "setting": "[1]", "result": "0.1 ± 0.2 percent injected dose per gram of tissue"}, {"measurement": "Stomach, In-111, 24 h", "setting": "[1]", "result": "0.0 ± 0.0 percent injected dose per gram of tissue"}, {"measurement": "Tumor, 30 minutes", "setting": "[1]", "result": "1.6 ± 0.3 percent injected dose per gram of tissue"}, {"measurement": "Tumor, 3 h", "setting": "[1]", "result": "0.1 ± 0.0 percent injected dose per gram of tissue"}, {"measurement": "Tumor, 24 h", "setting": "[1]", "result": "0.0 ± 0.0 percent injected dose per gram of tissue"}, {"measurement": "Tumor, In-111, 3 h", "setting": "[1]", "result": "6.4 ± 1.1 percent injected dose per gram of tissue"}, {"measurement": "Tumor, In-111, 24 h", "setting": "[1]", "result": "1.3 ± 0.3 percent injected dose per gram of tissue"}, {"measurement": "elimination", "setting": "[1]", "result": "quickly eliminated via the renal system"}]}
{"molecule": "Ac-Phe-Lys(DOTA)-Tyr-Lys(DOTA)-NH2 (Ac-FK(DOTA)YK(DOTA)-NH2; SMILES CC(=O)N[C@@H](Cc1ccccc1)C(=O)N[C@@H](CCCCNC(=O)CN1CCN(CC(=O)O)CCN(CC(=O)O)CCN(CC(=O)O)CC1)C(=O)N[C@@H](Cc1ccc(O)cc1)C(=O)N[C@@H](CCCCNC(=O)CN1CCN(CC(=O)O)CCN(CC(=O)O)CCN(CC(=O)O)CC1)C(N)=O) [IMP 236]", "values": [{"measurement": "binding of radiolabeled peptide by LG1", "setting": "LG1 IgG antibody", "result": "bind strongly"}]}
{"molecule": "Fab fragment of LG1: Fab fragment from ficin digestion of LG1 IgG (antibody, V domains shown) VH: EVMLVESGGGLVKPGGSLTLSCAASGFTFTAHAMSWVRQTPEKRLEWVATISGGGTYTYFPDSFQGRFTISSDNAKNTLYLQMSSLRSEDTSMYFCTRHGDYRYAFGYWGQGTLVTVSA VL: VVTQESALTTSPGETVTLTCRSSSGAVTTNNYANWVQEKPDHLFTGLIGGTNNRAPGVPARFSGSLIGDKAALTITGAQTEDEAIYFCALWFSDHWVFGGGTELTVLG", "values": [{"measurement": "binding to hLL2-DOTA", "setting": "hLL2-DOTA", "result": "positive binding"}, {"measurement": "binding to hLL2-DOTA-yttrium", "setting": "hLL2-DOTA-yttrium", "result": "positive binding"}, {"measurement": "binding to hMN-14-DOTA-yttrium-90", "setting": "hMN-14-DOTA-yttrium-90", "result": "positive binding"}]}
